Test results reported in ChEMBL document CHEMBL3132769, “Fragment growing to retain or alter the selectivity of anchored kinase hinge-binding fragments” (Medchemcomm, 2014).

Columns and labels:
[1] = target: Epidermal growth factor receptor (Homo sapiens) (UniProt P00533); test: Inhibition of human EGFR catalytic domain expressed in baculovirus assessed as substrate phosphorylation using fluorescence-labelled peptides as substrate at 8 uM after 90 mins by microfluidic peptide phosphorylation assay
[2] = target: T1, cGMP-dependent protein kinase 1 (Homo sapiens) (UniProt Q13976); test: Inhibition of human full length PKG-1beta expressed in baculovirus assessed as substrate phosphorylation using fluorescence-labelled peptides as substrate at 0.06 uM after 90 mins by microfluidic peptide phosphorylation assay
T1 sequence (whole entry): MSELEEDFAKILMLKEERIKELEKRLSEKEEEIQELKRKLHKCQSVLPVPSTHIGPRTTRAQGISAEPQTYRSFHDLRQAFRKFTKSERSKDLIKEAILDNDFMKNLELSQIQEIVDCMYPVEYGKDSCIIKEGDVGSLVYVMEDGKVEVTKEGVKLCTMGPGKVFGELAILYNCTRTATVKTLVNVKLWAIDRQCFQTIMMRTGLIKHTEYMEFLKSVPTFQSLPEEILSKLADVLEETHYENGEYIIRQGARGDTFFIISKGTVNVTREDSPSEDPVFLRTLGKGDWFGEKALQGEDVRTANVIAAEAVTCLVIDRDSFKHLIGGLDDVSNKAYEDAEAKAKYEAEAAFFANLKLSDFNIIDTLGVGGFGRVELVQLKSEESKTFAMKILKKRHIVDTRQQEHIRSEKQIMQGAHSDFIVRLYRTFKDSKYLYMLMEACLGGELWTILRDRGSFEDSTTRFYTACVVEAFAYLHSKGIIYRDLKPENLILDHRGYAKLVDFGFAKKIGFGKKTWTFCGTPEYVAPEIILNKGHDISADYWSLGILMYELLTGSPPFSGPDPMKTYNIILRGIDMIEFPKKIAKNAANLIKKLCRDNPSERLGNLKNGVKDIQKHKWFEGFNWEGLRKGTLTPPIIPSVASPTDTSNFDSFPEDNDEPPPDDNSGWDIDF

[3] = target: T2, Mitogen-activated protein kinase 13 (Homo sapiens) (UniProt O15264); test: Inhibition of human full length p38 delta expressed in Escherichia coli cell assessed as substrate phosphorylation using fluorescence-labelled peptides as substrate at 9 uM after 90 mins by microfluidic peptide phosphorylation assay
T2 sequence (whole entry): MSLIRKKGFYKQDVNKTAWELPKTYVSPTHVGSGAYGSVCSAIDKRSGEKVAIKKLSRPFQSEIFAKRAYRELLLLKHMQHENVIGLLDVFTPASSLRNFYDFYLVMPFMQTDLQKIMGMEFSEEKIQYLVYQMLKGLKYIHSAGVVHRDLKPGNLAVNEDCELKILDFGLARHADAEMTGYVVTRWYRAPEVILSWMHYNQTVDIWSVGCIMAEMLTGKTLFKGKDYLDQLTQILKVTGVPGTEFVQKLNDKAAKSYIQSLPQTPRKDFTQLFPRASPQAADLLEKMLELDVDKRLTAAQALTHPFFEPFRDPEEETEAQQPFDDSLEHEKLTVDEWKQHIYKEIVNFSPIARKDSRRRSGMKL

[4] = tested on: T3, Receptor-type tyrosine-protein kinase FLT3 (Homo sapiens), P36888 [D835Y]; test: Inhibition of human FLT3 D835Y mutant catalytic domain expressed in baculovirus assessed as substrate phosphorylation using fluorescence-labelled peptides as substrate at 9 uM after 90 mins by microfluidic peptide phosphorylation assay
T3 sequence (whole entry): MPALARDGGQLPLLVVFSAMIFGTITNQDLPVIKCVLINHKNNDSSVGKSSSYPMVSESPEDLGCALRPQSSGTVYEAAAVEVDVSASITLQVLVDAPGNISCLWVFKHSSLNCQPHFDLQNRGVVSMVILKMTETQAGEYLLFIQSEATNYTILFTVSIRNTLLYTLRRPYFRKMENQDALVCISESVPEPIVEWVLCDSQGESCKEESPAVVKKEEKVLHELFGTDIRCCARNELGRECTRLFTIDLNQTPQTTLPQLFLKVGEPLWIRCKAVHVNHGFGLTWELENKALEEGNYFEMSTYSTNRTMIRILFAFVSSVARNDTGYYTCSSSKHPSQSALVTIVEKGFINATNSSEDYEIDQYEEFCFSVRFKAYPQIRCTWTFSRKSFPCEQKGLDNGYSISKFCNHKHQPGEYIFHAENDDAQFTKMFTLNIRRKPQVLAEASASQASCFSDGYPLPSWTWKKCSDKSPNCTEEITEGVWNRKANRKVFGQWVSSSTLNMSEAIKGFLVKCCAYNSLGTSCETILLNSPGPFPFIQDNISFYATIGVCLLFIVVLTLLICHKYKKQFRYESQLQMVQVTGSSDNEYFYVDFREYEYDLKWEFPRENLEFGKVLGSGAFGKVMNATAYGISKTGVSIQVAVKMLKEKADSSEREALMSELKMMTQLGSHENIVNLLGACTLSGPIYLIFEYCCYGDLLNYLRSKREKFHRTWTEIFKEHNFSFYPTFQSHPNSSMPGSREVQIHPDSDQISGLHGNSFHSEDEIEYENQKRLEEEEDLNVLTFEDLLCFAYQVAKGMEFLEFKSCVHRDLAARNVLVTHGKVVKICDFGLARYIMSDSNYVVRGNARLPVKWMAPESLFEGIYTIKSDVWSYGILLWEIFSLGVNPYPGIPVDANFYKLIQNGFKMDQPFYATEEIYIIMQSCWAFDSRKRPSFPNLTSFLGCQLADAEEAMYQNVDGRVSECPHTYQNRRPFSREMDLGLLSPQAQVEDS

[5] = target: Ribosomal protein S6 kinase alpha-3 (Homo sapiens) (UniProt P51812); test: Inhibition of human full length RSK2 expressed in baculovirus assessed as substrate phosphorylation using fluorescence-labelled peptides as substrate at 0.1 uM after 90 mins by microfluidic peptide phosphorylation assay
[6] = target: T4, Aurora kinase C (Homo sapiens) (UniProt Q9UQB9); test: Inhibition of human full length AurC expressed in baculovirus assessed as substrate phosphorylation using fluorescence-labelled peptides as substrate at 0.1 uM after 90 mins by microfluidic peptide phosphorylation assay
T4 sequence (whole entry): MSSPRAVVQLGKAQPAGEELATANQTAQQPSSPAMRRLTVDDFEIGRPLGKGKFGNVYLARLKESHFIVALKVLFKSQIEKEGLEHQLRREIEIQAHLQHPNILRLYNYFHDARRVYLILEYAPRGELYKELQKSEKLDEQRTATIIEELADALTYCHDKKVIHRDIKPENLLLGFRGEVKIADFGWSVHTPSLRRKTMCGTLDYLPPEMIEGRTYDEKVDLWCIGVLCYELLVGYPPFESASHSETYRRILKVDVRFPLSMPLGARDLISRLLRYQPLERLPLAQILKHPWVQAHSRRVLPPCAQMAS

[7] = target: Tyrosine-protein kinase ABL2 (Homo sapiens) (UniProt P42684); test: Inhibition of human truncated Arg expressed in baculovirus assessed as substrate phosphorylation using fluorescence-labelled peptides as substrate at 95 uM after 90 mins by microfluidic peptide phosphorylation assay
[8] = target: MAP/microtubule affinity-regulating kinase 3 (Homo sapiens) (UniProt P27448); test: Inhibition of human full length c-TAK1 expressed in Escherichia coli cell assessed as substrate phosphorylation using fluorescence-labelled peptides as substrate at 95 uM after 90 mins by microfluidic peptide phosphorylation assay
Chain of MAP/microtubule affinity-regulating kinase 3 (Homo sapiens) (P27448 whole entry, looked up): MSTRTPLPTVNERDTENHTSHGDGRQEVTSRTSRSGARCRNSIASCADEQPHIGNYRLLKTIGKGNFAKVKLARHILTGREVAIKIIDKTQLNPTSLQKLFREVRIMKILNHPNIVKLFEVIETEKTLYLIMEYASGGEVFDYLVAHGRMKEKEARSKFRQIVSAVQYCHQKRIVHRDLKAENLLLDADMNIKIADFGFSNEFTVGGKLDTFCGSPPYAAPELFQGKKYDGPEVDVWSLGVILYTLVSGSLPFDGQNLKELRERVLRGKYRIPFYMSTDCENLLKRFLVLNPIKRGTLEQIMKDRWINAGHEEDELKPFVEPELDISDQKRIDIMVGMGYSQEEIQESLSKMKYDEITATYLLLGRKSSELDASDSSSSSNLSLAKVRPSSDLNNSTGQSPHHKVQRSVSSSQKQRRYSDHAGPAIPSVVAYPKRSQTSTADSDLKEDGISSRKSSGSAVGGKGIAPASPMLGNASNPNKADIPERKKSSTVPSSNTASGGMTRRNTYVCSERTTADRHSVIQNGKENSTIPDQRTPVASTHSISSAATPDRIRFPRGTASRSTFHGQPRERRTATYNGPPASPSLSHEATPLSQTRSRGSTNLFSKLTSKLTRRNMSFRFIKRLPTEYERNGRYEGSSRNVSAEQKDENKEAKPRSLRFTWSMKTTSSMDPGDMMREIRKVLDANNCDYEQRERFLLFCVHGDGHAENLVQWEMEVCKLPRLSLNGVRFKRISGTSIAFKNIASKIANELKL

Chain of Epidermal growth factor receptor (Homo sapiens) (P00533 whole entry, the tested form may be a part): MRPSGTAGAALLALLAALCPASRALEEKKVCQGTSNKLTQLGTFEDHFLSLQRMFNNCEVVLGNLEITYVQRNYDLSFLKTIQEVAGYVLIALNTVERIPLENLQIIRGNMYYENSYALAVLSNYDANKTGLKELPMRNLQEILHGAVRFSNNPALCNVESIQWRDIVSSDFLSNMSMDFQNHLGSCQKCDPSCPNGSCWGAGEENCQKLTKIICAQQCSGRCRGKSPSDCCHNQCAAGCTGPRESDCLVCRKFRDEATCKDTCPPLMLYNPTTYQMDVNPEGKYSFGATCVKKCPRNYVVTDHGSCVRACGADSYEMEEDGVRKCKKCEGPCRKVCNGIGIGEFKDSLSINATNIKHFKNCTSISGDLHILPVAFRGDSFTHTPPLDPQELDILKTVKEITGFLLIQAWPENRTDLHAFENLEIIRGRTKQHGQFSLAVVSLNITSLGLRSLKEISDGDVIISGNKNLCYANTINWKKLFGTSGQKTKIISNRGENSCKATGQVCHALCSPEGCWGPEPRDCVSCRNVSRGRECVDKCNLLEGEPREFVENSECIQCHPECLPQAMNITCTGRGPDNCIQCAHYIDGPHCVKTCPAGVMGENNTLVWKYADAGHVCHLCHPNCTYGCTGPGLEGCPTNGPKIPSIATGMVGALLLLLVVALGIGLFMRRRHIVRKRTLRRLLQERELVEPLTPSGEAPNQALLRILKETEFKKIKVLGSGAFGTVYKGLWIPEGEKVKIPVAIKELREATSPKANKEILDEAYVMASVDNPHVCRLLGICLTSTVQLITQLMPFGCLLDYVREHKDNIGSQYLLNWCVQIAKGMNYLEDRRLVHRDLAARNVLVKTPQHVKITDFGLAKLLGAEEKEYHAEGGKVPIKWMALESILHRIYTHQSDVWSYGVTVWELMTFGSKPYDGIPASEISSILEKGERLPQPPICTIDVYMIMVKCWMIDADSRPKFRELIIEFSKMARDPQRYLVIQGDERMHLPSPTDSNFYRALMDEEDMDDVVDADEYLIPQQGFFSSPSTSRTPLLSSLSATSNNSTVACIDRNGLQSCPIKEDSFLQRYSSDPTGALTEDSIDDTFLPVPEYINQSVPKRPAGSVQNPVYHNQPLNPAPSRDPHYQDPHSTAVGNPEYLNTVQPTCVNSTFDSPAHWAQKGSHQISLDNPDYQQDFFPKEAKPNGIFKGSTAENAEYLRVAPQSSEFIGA
Chain of Tyrosine-protein kinase ABL2 (Homo sapiens) (P42684 whole entry, the tested form may be a part): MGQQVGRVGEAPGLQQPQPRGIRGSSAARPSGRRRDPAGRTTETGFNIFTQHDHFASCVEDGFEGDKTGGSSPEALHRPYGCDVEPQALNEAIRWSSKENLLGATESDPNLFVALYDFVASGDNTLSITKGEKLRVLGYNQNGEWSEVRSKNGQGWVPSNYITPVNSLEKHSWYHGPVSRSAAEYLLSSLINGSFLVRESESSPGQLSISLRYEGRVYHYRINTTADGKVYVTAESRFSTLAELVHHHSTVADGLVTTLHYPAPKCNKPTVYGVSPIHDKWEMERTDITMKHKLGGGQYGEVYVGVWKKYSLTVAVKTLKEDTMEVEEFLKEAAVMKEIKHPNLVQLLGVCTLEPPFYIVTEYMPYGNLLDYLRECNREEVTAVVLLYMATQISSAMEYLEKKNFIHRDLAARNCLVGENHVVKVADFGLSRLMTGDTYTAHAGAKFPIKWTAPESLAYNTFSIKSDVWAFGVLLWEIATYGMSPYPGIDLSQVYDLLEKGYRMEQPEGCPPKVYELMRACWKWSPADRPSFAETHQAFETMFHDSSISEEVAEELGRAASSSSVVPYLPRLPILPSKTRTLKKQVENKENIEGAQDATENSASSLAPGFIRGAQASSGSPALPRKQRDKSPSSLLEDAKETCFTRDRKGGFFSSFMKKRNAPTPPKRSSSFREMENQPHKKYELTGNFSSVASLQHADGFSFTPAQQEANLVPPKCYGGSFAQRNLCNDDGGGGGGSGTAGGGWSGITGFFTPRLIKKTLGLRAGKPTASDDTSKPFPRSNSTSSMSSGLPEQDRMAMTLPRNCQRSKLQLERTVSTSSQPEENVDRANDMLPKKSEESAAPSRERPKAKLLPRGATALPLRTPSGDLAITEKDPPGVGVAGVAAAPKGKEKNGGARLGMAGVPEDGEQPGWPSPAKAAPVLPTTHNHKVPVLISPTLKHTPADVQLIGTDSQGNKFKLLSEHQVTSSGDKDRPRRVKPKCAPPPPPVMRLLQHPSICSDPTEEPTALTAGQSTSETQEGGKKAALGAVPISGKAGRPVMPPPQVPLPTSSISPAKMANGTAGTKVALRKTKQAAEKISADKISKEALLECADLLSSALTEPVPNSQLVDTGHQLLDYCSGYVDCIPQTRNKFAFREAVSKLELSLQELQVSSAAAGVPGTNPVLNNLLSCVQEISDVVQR
Chain of Ribosomal protein S6 kinase alpha-3 (Homo sapiens) (P51812 whole entry): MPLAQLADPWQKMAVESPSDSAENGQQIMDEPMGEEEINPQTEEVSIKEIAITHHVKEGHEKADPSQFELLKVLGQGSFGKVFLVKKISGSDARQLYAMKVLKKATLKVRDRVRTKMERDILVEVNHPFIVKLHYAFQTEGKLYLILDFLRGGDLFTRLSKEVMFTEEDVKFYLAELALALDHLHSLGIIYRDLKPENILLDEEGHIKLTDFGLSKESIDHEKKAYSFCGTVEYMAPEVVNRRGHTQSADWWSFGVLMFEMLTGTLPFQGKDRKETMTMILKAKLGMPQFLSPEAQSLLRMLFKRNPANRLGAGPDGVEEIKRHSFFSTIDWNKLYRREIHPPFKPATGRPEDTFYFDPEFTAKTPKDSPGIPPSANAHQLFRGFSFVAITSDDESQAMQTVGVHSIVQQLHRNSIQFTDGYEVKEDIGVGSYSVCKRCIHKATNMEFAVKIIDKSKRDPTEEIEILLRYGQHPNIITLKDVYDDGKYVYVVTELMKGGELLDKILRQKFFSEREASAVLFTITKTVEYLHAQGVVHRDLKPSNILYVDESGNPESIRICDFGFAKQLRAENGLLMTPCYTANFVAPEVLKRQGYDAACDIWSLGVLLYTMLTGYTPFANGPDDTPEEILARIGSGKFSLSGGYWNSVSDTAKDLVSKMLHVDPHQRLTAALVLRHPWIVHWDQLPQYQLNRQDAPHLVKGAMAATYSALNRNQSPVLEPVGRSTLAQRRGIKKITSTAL

NCC1CCN(c2ncnc3[nH]ccc23)CC1
inhibition [1]: 33%

NC1(Cc2ccc(Cl)cc2)CCN(c2ncnc3[nH]ccc23)CC1
inhibition [2]: 0%

NCC1CN(c2ncnc3[nH]c4cnccc4c23)CCO1 (stereo not drawn)
inhibition [3]: 2% | inhibition [4]: 95%

C[C@H](CN(C)C)Oc1nc(Nc2cc3cccc(Cl)c3cn2)cnc1C#N
inhibition [5]: 59.5% | inhibition [6]: 1%

NCCc1ccc(-c2ncnc3[nH]cnc23)cc1
inhibition [7]: 50.5% | inhibition [8]: 18%
